Experimental data: publication PMC7181051, “Probing the Protein-Protein Interaction between the ATRXADD Domain and the Histone H3 Tail” (Molecules, 2020)
Where two headings read alike, the source gives them in different places. Where a SMILES comes first, the peptide text is derived from it. [ ]: non-standard residue; d: D form. Lys(Me3) = C[N+](C)(C)CCCC[C@H](N)C(=O)O

Target: T1, ATRXADD (Homo sapiens, UniProt P46100)
T1 construct: The pGEX-GP-2-ATRX ADD plasmid (Addgene plasmid #59698) [17] was transformed into BL21 cells for expression and purification; GST (N, cleaved yes); peptides GenScript #59698; host or cells: E. coli BL21
T1 sequence (P46100 159-296 limits assumed): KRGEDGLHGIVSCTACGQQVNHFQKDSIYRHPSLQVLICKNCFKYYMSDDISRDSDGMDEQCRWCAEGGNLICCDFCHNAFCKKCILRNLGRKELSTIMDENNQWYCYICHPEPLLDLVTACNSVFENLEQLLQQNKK
Assay: Fluorescence polarization (FP) displacement assay
Type: binding
Conditions: for disruption of the H3:ATRXADD PPI in the FP assay, in words: truncated and modified H3 peptides

[1] = disruption of H3_1-15K9me3-FAM (0.75 µM):ATRXADD (5 µM) PPI, PBS, highest concentration tested 100 µM, ND = no displacement, read-out: FP Assay IC50

Row | IC50 [1] | SMILES | IC50 | disruption of the H3:ATRXADD PPI in the FP assay, in words
1 |  | C[C@H](N)C(=O)N[C@@H](CCCNC(=N)N)C(=O)N[C@@H](CCCC[N+](C)(C)C)C(=O)N[C@@H](CO)C(=O)N[C@H](C(=O)O)[C@@H](C)O [Peptide H3_7-11K9me3] (H-AR[Lys(Me3)]ST-OH; N-terminus and C-terminus assumed) | > 100 µM | inactive
2 | > 100 µM | C[C@H](NC(=O)[C@@H](NC(=O)[C@H](CCC(N)=O)NC(=O)[C@H](CCCCN)NC(=O)[C@@H](N)[C@@H](C)O)[C@@H](C)O)C(=O)N[C@@H](CCCNC(=N)N)C(=O)N[C@@H](CCCC[N+](C)(C)C)C(=O)N[C@@H](CO)C(=O)N[C@H](C(=O)O)[C@@H](C)O [Peptide H3_3-11K9me3] (H-TKQTAR[Lys(Me3)]ST-OH; N-terminus and C-terminus assumed) |  | completely abolished activity
3 | > 100 µM | C[C@@H](O)[C@H](N)C(=O)N[C@@H](CCCCN)C(=O)N[C@@H](CCC(N)=O)C(=O)O [Peptide H3_3-5] (H-Thr-Lys-Gln-OH; N-terminus and C-terminus assumed) |  | inactive
4 |  | C[C@H](NC(=O)[C@@H](NC(=O)[C@H](CCC(N)=O)NC(=O)[C@H](CCCCN)NC(=O)[C@@H](N)[C@@H](C)O)[C@@H](C)O)C(=O)N[C@@H](CCCNC(=N)N)C(=O)O [Peptide H3_3-8] (H-TKQTAR-OH; N-terminus and C-terminus assumed) | > 100 µM | inactive
5 |  | C[C@@H](O)[C@H](NC(=O)[C@H](CCC(N)=O)NC(=O)[C@H](CCCCN)NC(=O)[C@@H](NC(=O)[C@@H](N)CCCNC(=N)N)[C@@H](C)O)C(=O)O [Peptide H3_2-6] (H-RTKQT-OH; N-terminus and C-terminus assumed) | > 100 µM | inactive
6 | ≥ 100 µM | C[C@H](N)C(=O)N[C@@H](CCCNC(=N)N)C(=O)N[C@H](C(=O)N[C@@H](CCCC[N+](C)(C)C)C(=O)N[C@@H](CCC(N)=O)C(=O)N[C@H](C(=O)N[C@@H](C)C(=O)N[C@@H](CCCNC(=N)N)C(=O)N[C@@H](CCCC[N+](C)(C)C)C(=O)N[C@@H](CO)C(=O)N[C@H](C(=O)O)[C@@H](C)O)[C@@H](C)O)[C@@H](C)O [H3_1-11K4me3K9me3] |  | significantly reduced the activity
7 |  | C[C@H](N)C(=O)N[C@@H](CCCNC(=N)N)C(=O)N[C@H](C(=O)N[C@@H](CCCC[N+](C)(C)C)C(=O)N[C@@H](CCC(N)=O)C(=O)N[C@H](C(=O)N[C@@H](C)C(=O)O)[C@@H](C)O)[C@@H](C)O [Peptide H3_1-7K4me3] (H-ART[Lys(Me3)]QTA-OH) | > 100 µM | 
8 | > 100 µM | C[C@H](NC(=O)[C@@H](NC(=O)[C@H](CCC(N)=O)NC(=O)[C@H](CCCC[N+](C)(C)C)NC(=O)[C@@H](N)[C@@H](C)O)[C@@H](C)O)C(=O)N[C@@H](CCCNC(=N)N)C(=O)N[C@@H](CCCC[N+](C)(C)C)C(=O)N[C@@H](CO)C(=O)O [H3_3-10K4me3K9me3] (H-T[Lys(Me3)]QTAR[Lys(Me3)]S-OH; N-terminus and C-terminus assumed) |  | 
